The target in experiment [1] is T1, PPARG/RXRA LBD heterodimer (Homo sapiens (Human), UniProt P37231). As to the kind of experiment: PPARG-NCOR1 recruitment assay (TR-FRET). Particulars: for EC50: TR-FRET, biotinylated NCOR1 ID2 peptide, 80 nM Rosiglitazone, 3 hours, read-out: PPARG-NCOR recruitment assay EC50; for % NCOR recruitment relative to T907: maximal extent, T0070907 defined as 100%, DMSO 0%. It is filed as biochemical. Here is the method: Compound potency (EC50) and maximal extent of NCOR1 recruitment to PPARG were assessed a TR-FRET binding assay measuring association of a biotinylated NCOR1 ID2 peptide (Biotin-[…]-amide) to PPARG/RXRA LBD heterodimer. Specifically, a 20 microliters of TR-FRET master mix consisting of 2 nM WT PPARG LBD (e. coli expressed, His-TEV-Q203-Y477; Uniprot ID P37231-2), 2 nM WT RXRA LBD or mutant S427F RXRA LBD (e. coli expressed, Flag-TEV-E228-T462; […]. Mixtures were incubated for 3 hours and read in an EnVision plate reader (Perkin Elmer) with Ex/Em 615/665. To determine the potency (EC50) and extent of NCOR1 recruitment, TR-FRET ratios were normalized to the average ratio of DMSO control wells (0%) and to the average maximum ratio for positive control compound (T0070907 (2-chloro-5-nitro-N-4-pyridinyl-benzamide); defined as 100%) in CDD Vault and analyzed using the Levenberg-Marquardt algorithm.
T1 sequence (P37231 whole entry, looked up, the tested form may be a part): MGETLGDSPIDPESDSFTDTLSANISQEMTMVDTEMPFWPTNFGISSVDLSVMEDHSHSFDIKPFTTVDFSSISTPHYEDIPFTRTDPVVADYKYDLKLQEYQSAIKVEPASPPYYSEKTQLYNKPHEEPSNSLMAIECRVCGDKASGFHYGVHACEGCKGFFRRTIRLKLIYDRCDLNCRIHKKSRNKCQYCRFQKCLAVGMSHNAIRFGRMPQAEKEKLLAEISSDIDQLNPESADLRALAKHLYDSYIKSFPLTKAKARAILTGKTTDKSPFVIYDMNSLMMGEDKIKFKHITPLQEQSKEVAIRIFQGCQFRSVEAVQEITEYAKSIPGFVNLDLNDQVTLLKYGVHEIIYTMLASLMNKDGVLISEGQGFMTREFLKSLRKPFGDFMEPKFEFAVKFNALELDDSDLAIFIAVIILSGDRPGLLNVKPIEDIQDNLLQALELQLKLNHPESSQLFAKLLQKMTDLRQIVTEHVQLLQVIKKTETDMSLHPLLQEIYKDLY
T1 sequence (P19793 whole entry partner, looked up, the tested form may be a part): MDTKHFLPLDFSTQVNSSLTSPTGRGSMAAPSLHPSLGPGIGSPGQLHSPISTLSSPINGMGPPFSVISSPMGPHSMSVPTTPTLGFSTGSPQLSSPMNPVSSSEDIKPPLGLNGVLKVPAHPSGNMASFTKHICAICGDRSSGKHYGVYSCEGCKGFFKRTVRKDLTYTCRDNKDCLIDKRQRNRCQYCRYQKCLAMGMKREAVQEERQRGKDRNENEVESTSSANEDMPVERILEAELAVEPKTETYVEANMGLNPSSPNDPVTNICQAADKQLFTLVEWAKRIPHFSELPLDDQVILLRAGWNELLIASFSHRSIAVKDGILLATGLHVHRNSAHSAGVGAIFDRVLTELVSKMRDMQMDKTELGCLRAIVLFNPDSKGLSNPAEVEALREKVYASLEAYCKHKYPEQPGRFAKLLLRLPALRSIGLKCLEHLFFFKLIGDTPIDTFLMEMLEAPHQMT
Background: In TR-FRET formats the signal depends on donor and acceptor labels being close together.

Experiment [2] addresses T1, PPARG/RXRA LBD heterodimer. The experiment in a line: PPARG-MED1 blockade assay (TR-FRET). It is filed as biochemical. To be noted: for EC50: TR-FRET, biotinylated MED1 LxxLL peptide, 80 nM Rosiglitazone, 3 hours, IC50; for % MED1 blockade relative to GW9662: maximal extent, GW9662 defined as 100%, DMSO 0%. As for the experimental part:
Compound potency (IC50) and maximal extent of MED1 repulsion to PPARG were assessed a TR-FRET binding assay measuring association of a biotinylated MED1 LxxLL peptide (Biotin-[…]-amide) to PPARG/RXRA LBD heterodimer. Specifically, a 20 microliters of TR-FRET master mix consisting of 2 nM WT PPARG LBD (e. coli expressed, His-TEV-Q203-Y477; Uniprot ID P37231-2), 2 nM WT RXRA LBD (e. coli expressed, Flag-TEV-E228-T462; […]. Mixtures were incubated for 3 hours and read in an EnVision plate reader (Perkin Elmer) with Ex/Em 615/665. To determine the potency (IC50) and extent of MED1 repulsion, TR-FRET ratios were normalized to the average ratio of DMSO control wells (0%) and to the average minimum ratio for positive control compound (GW9662 (2-chloro-5-nitrobenzanilide); defined as 100%) in CDD Vault and analyzed using the Levenberg-Marquardt algorithm.

Experiment [3] deals with HT1197 (RXRA S427F mutation) cells. As to the kind of experiment: Bladder cancer pharmacodynamic assay, HT1197 cell assay (qPCR of PPARG target gene ANGPTL4). Particulars: Homo sapiens; for inhibition at 0.1 µM: 100 nM compound, 24 hours, relative to DMSO control; for EC50: 24 hours treatment, qPCR. It counts as cell-based. Here is the method:
5637 (PPARG amplified) and HT1197 (RXRA S427F mutation) cells were used for assessment of modulation of PPARG target genes using quantitative PCR. Cells were treated for 24 hours with PPARG inverse agonists prior to analysis of FABP4 (IDT, Cat: Hs.PT 58.20106818) and ANGPTL4 (IDT, Cat: Hs.PT 58.25480012) expression, with expression of the housekeeping gene TBP (IDT, Cat: Hs.PT 58v.39858774) used to normalize expression across samples. Quantitative PCR was performed using an ABI QuantStudio 7 Flex Reaction system. Data were analyzed and reported relative to DMSO control using the comparative Ct method […].

Take `CS(=O)(=O)c1ccc(C#N)cc1-c1cc(=O)c2c(Oc3ccc(Cl)cc3)cc(F)cc2[nH]1` [Example 1, 3-(5-(4-Chlorophenoxy)-7-Fluoro-4-Oxo-1,4-Dihydroquinolin-2-Yl)-4-(Methylsulfonyl)Benzonitrile]: in experiment [1], the EC50 (as a rule, the concentration giving half of the maximal effect) lay within 100 to 1000 nM and the “% NCOR recruitment relative to T907” value is listed as “A (A: >100% (>the control compound, T907))”. Also, in experiment [2], the half-maximal effective concentration (EC50) is 100 to 1000 nM and the “% MED1 blockade relative to GW9662” value is “A (A: >100% (>the control compound, GW9662))”. In addition, in experiment [3], the inhibition (commonly the drop in the measured response relative to a control, in per cent) at 0.1 µM came out at 85% and the midpoint of the response, the EC50, lay at 0.8 nM.

In the case of `N#Cc1ccc(Cl)c(-c2cc(=O)c3c(Oc4ccc(Cl)cc4)cc(F)cc3[nH]2)c1` [Example 2, 4-Chloro-3-(5-(4-Chlorophenoxy)-7-Fluoro-4-Oxo-1,4-Dihydroquinolin-2-Yl)Benzonitrile], in experiment [1], the EC50 was 100 to 1000 nM and the “% NCOR recruitment relative to T907” value was “A (A: >100% (>the control compound, T907))”. Moreover, in experiment [2], the EC50 was in the range of 100 to 1000 nM and the “% MED1 blockade relative to GW9662” value is “B (B: <100% (<the control compound, GW9662))”. In experiment [3], this compound registered an inhibition at 0.1 µM of 91%.

Turning to `Cn1cc(Oc2cc(F)cc3[nH]c(-c4cc(C#N)ccc4S(C)(=O)=O)cc(=O)c23)cn1` [Example 3, 3-(7-Fluoro-5-((1-Methyl-1H-Pyrazol-4-Yl)Oxy)-4-Oxo-1,4-Dihydroquinolin-2-Yl)-4-(Methylsulfonyl)Benzonitrile], in experiment [1], the concentration giving a half-maximal response (EC50) was 1000 to 10000 nM and the “% NCOR recruitment relative to T907” value is “A (A: >100% (>the control compound, T907))”. In addition, in experiment [2], the EC50 was 1000 to 10000 nM and the “% MED1 blockade relative to GW9662” value is reported as “A (A: >100% (>the control compound, GW9662))”. In experiment [3], this compound displayed an inhibition at 0.1 µM of 82%.

Consider `Cn1cc(Oc2cc(Cl)cc3[nH]c(-c4cc(C#N)ccc4S(C)(=O)=O)cc(=O)c23)cn1` [Example 4, 3-(7-Chloro-5-((1-Methyl-1H-Pyrazol-4-Yl)Oxy)-4-Oxo-1,4-Dihydroquinolin-2-Yl)-4-(Methylsulfonyl)Benzonitrile], for which, in experiment [1], the 50% effective concentration (EC50) was in the range of 100 to 1000 nM and the “% NCOR recruitment relative to T907” value is listed as “A (A: >100% (>the control compound, T907))”. Further, in experiment [2], the concentration giving a half-maximal response (EC50) lay in the range of 100 to 1000 nM and the “% MED1 blockade relative to GW9662” value was “A (A: >100% (>the control compound, GW9662))”. Also, in experiment [3], the inhibition at 0.1 µM was 86% and the concentration for a half-maximal effect (EC50) is 0.35 nM.

In the case of `N#Cc1ccc(Cl)c(-c2cc(=O)c3c(Oc4ccc(Cl)nc4)cc(F)cc3[nH]2)c1` [Example 5, 4-Chloro-3-(5-((6-Chloropyridin-3-Yl)Oxy)-7-Fluoro-4-Oxo-1,4-Dihydroquinolin-2-Yl)Benzonitrile], in experiment [1], the concentration giving a half-maximal response (EC50) is 100 to 1000 nM and the “% NCOR recruitment relative to T907” value was “A (A: >100% (>the control compound, T907))”. Further, in experiment [2], the concentration for a half-maximal effect (EC50) fell in the range of 100 to 1000 nM and the “% MED1 blockade relative to GW9662” value is “A (A: >100% (>the control compound, GW9662))”. In addition, at 0.1 µM the inhibition in experiment [3] was 77%.

Take `N#Cc1ccc(Cl)c(-c2cc(=O)c3c(OCc4ccc(Cl)cc4)cc(F)cc3[nH]2)c1` [Example 6, 4-Chloro-3-(5-((4-Chlorobenzyl)Oxy)-7-Fluoro-4-Oxo-1,4-Dihydroquinolin-2-Yl)Benzonitrile]: in experiment [1], the concentration giving a half-maximal response (EC50) is 100 to 1000 nM and the “% NCOR recruitment relative to T907” value was “A (A: >100% (>the control compound, T907))”. Besides, in experiment [2], the concentration giving a half-maximal response (EC50) was in the range of 100 to 1000 nM and the “% MED1 blockade relative to GW9662” value was “A (A: >100% (>the control compound, GW9662))”. Moreover, testing at 0.1 µM in experiment [3] gave an inhibition of 25%.

On to `CS(=O)(=O)c1ccc(C#N)cc1-c1cc(=O)c2c(Cc3ccc(Cl)cc3)cc(F)cc2[nH]1` [Example 7, 3-(5-(4-Chlorobenzyl)-7-Fluoro-4-Oxo-1,4-Dihydroquinolin-2-Yl)-4-(Methylsulfonyl)Benzonitrile], for which, in experiment [1], the EC50 lay in the range of 10 to 100 nM and the “% NCOR recruitment relative to T907” value is “A (A: >100% (>the control compound, T907))”. Moreover, in experiment [2], the half-maximal effective concentration (EC50) lay within 100 to 1000 nM and the “% MED1 blockade relative to GW9662” value is recorded as “A (A: >100% (>the control compound, GW9662))”. In experiment [3], this compound gave an inhibition at 0.1 µM of 90%.

The values above are taken from patent publication US20250186425A1, “PPARG INVERSE AGONISTS AND USES THEREOF” (Flare Therapeutics Inc., priority 2022, published 2025).
